Earlier results as cited in patent publication US20150065545A1, “Transdermal Delivery of Anastrozole for Systemic Effect” (Professional Compounding Centers of America, priority 2013, published 2015).

Columns and labels:
[1] = after the use of anastrozole for about 7 days
[2] = men with hormone disorders (elevated estradiol) prescribed anastrozole

For `CC(C)(C#N)c1cc(Cn2cncn2)cc(C(C)(C)C#N)c1` [anastrozole, 1,3-benzenediacetonitrile, a, a, a′, a′-tetramethyl-5-(1H-1,2,4-triazol-1-ylmethyl)], the “increase of natural testosterone levels” value [1] is listed as no more than 60% and the estradiol levels [2] is listed as “significant decrease”.
